Source: ChEMBL document CHEMBL1201862, “PubChem BioAssay data set” (2004)
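In this assay, cells in 96-well plates receive the compound at five concentrations for 48 hours. Endpoints are linearly interpolated between the surrounding concentrations. At the GI50, growth is halved.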 Calls of active or inactive are those of the source. Cut-off read from the data, not from the text of the source: active = GI50 up to about 1.1 µM and inactive = higher.

Assays:
Assay in all cases: NCI-60 cell line screen, 48 h
[1] = test system: 786-0
[2] = test system: A549
[3] = test system: ACHN
[4] = test system: BT-549
[5] = test system: CAKI-1
[6] = test system: CCRF-CEM
[7] = test system: COLO 205
[8] = test system: DU-145
[9] = test system: EKVX
[10] = test system: HCC 2998
[11] = test system: HCT-116
[12] = test system: HCT-15
[13] = test system: HL-60
[14] = test system: HOP-62
[15] = test system: HOP-92
[16] = test system: HT-29
[17] = test system: Hs-578T
[18] = test system: IGROV-1
[19] = test system: KM12
[20] = test system: LOX IMVI
[21] = test system: M14
[22] = test system: MCF7
[23] = test system: MDA-MB-231
[24] = test system: MDA-MB-435
[25] = test system: MDA-N
[26] = test system: MOLT-4
[27] = test system: Malme-3M
[28] = test system: NCI-H226
[29] = test system: NCI-H23
[30] = test system: NCI-H460
[31] = test system: NCI-H522
[32] = test system: NCI/ADR-RES
[33] = test system: OVCAR-3
[34] = test system: OVCAR-4
[35] = test system: OVCAR-5
[36] = test system: OVCAR-8
[37] = test system: PC-3
[38] = test system: RPMI-8226
[39] = test system: SF-268
[40] = test system: SF-295
[41] = test system: SF-539
[42] = test system: SK-MEL-28
[43] = test system: SK-MEL-2
[44] = test system: SK-MEL-5
[45] = test system: SK-OV-3
[46] = test system: SN12C
[47] = test system: SNB-19
[48] = test system: SNB-75
[49] = test system: SR
[50] = test system: SW-620
[51] = test system: T47D
[52] = test system: TK-10
[53] = test system: U-251
[54] = test system: UACC-257
[55] = test system: UACC-62
[56] = test system: UO-31
[57] = test system: K562
[58] = test system: RXF 393

Measured: GI50

OCCCCCCCCCCCOc1ccc(C2OCC3(CC=CCC3)CO2)cc1 (stereo unspecified)
15.2 µM: [12]
active: [49] 0.43 µM
inactive: [1] 13.8 µM | [2] 17.1 µM | [3] 17.5 µM | [4] 15 µM | [5] 17.4 µM | [6] 11 µM | [7] 22 µM | [8] 16.2 µM | [9] 10.6 µM | [10] 17.9 µM | [11] 15.8 µM | [13] 7.29 µM | [14] 14.4 µM | [15] 16.9 µM | [16] 3.85 µM | [17] 7.87 µM | [18] 16.1 µM | [19] 13 µM | [20] 11.7 µM | [21] 11.1 µM | [22] 4.88 µM | [23] 16.9 µM | [24] 17.9 µM | [25] 15.9 µM | [26] 34.2 µM | [27] 18.1 µM | [28] 16.6 µM | [29] 16.4 µM | [30] 16.9 µM | [31] 5.08 µM | [32] 14.7 µM | [33] 19.1 µM | [34] 15.7 µM | [35] 19.3 µM | [36] 17.2 µM | [37] 4.07 µM | [38] > 100 µM | [39] 17.9 µM | [40] 17.6 µM | [41] 19.1 µM | [42] 16.9 µM | [43] 38.1 µM | [44] 16.4 µM | [45] 19.3 µM | [46] 15 µM | [47] 19.9 µM | [48] 11.8 µM | [50] 16 µM | [51] 13.3 µM | [52] 16.9 µM | [53] 13.9 µM | [54] 16.8 µM | [55] 17.1 µM | [56] 17.5 µM

O=C(O)Cc1ccc(/N=N/c2c(O)c(C(=O)O)cc3ccccc23)cc1
inactive: [1] > 100 µM | [2] > 100 µM | [3] > 100 µM | [4] > 100 µM | [5] > 100 µM | [6] > 100 µM | [7] > 100 µM | [8] > 100 µM | [9] > 100 µM | [10] > 100 µM | [11] > 100 µM | [13] > 100 µM | [14] > 100 µM | [15] > 100 µM | [16] > 100 µM | [17] > 100 µM | [18] > 100 µM | [57] > 100 µM | [19] > 100 µM | [21] > 100 µM | [22] > 100 µM | [23] > 100 µM | [24] > 100 µM | [25] > 100 µM | [26] > 100 µM | [27] 24.8 µM | [28] > 100 µM | [30] > 100 µM | [32] > 100 µM | [33] > 100 µM | [34] > 100 µM | [35] > 100 µM | [36] > 100 µM | [37] > 100 µM | [38] > 100 µM | [58] > 100 µM | [39] > 100 µM | [40] > 100 µM | [41] > 100 µM | [42] > 100 µM | [43] > 100 µM | [44] 71.8 µM | [45] > 100 µM | [46] > 100 µM | [47] > 100 µM | [48] > 100 µM | [49] > 100 µM | [50] > 100 µM | [51] > 100 µM | [52] > 100 µM | [53] > 100 µM | [54] > 100 µM | [55] > 100 µM | [56] > 100 µM
> 100 µM: [12]
